Experimental data published in the NIST ThermoML archive (doi:10.1021/je2000217).
± gives the expanded uncertainty stated by the source.

Assay: cn = amount concentration of the nth substance listed, in mol/dm3
Conditions: 100 kPa, Liquid; for viscosity: Capillary tube (Ostwald / Ubbelohde) method; for mass density: Vibrating tube method

CCCCCCCCCCCCCCCC[N+](C)(C)C.[Br-] [N,N,N-trimethyl-1-hexadecanaminium bromide] + O
Conditions	mass density, 298.15 K [kg/m3]	mass density, 308.15 K [kg/m3]	mass density, 318.15 K [kg/m3]	viscosity, 298.15 K [mPa·s]	viscosity, 308.15 K [mPa·s]	viscosity, 318.15 K [mPa·s]
c1 = 0.001	997.1 ± 0.4	994.2 ± 0.4	990.6 ± 0.4	0.8978 ± 0.019	0.7436 ± 0.016	0.6173 ± 0.013
c1 = 0.003	997.3 ± 0.4	994.3 ± 0.4	990.7 ± 0.4	0.9087 ± 0.019	0.7516 ± 0.016	0.6217 ± 0.013
c1 = 0.005	997.4 ± 0.4	994.4 ± 0.4	990.8 ± 0.4	0.9213 ± 0.019	0.7596 ± 0.016	0.6349 ± 0.013
